A word on the pIC50: it is the negative decadic logarithm of the IC50, by convention in mol/L.

pIC50: −log10 of the molar value.

The test system of assay [1] is MYBL2 Ser241 in KOPT-K1 cells. The assay is described as follows: Phosphoproteomics analysis. In kind it is cell-based, human. Particulars: 3 hours.
Protocol: To evaluate phosphopeptides in KOPT-K1 cells by phosphoproteomics analysis, cells were treated with PPZ at 10 μM or iPAP1 at 1 μM for 3 hours.
The subject of assay [2] is α and β tubulins in KOPT-K1 cell lysates. The assay is described as follows: Cellular thermal shift assay (CETSA), tubulins. The format is binding, human. The procedure:
Data are presented as means±s.d. (n=3, biological replicates). The quantitation of levels α and β tubulins detected by specific antibodies was determined using western blotting (FIG. 19E). Alpha (α) and tubulin levels were quantified during CETSA by Image J software of KOPT-K1 cell lysates treated or untreated with iPAP1 at various temperatures for 3 minutes. […] The CETSA curves for KOPT-K1 cell lysates with and without the addition of iPAP1 after incubation for 3 minutes are shown in FIG. 19F and FIG. 19G. […] Data are presented as means±s.d. (n=3, biological replicates). The quantitation of levels α and β tubulins detected by specific antibodies using western blotting (FIG. 19H). α and β tubulin levels were quantified during CETSA by Image J software of KOPT-K1 cell lysates treated or untreated with iPAP1 at various temperature for 3 minutes.

Assay [3] has as its system KOPT-K1 cells with PP2A subunit inactivation. The assay is described as follows: Drug sensitivity of KOPT-K1 sublines with CRISPR-Cas9 PP2A subunit knockout. In kind it is cell-based, human. Particulars: 72 hours. How it is done: Two gRNAs with different target sequences were designed for each subunit (#1 and #2). Control gRNAs target luciferase gene. […] Data are presented as means±s.d. (n=3-5, biological replicates). ***P<0.001 by Student's t-test (FIG. 3A).
SMAP sensitivity in KOPT-K1 cells was measured after PP2A subunit inactivation. Only each subunit of PP2A was knocked out by CRISPR-Cas9 with unique gRNAs. […] Two gRNAs with different target sequences were designed for each subunit (#1 and #2). Control gRNAs target luciferase gene. Data are presented as means±s.d. (n=3-5, biological replicates). ***P<0.001 by Student's t-test (FIG. 3B).
To identify the subunits of PP2A that are essential for the antitumor activity of iPAP1, CRISPR-Cas9 was used to establish a series of sublines of KOPT-K1 T-ALL cells, each lacking one of the 19 specific PP2A subunits (FIG.1A-FIG. 2), and to examine their sensitivity to iPAP1-induced growth inhibition.
With this panel of PP2A subunit knockout cells in hand, we analyzed the PP2A subunits required for growth suppression by SMAPs, another class of allosteric activators of PP2A (Gutierrez et al., J. Clin. Invest. 124:644-655 (2014); Sangodkar et al., J. Clin. Invest. 127:2081-2090 (2017)). […] Both the PPP2R5E and PPP2R2A regulatory subunits of PP2A were among the most highly expressed in a series of 16 different T-ALL cell lines (FIG. 5A). Thus, the assembly of structurally different heterotrimeric PP2A complexes induced with either iPAP1 or SMAP cannot be attributed to imbalances in cellular expression levels of individual PP2A subunits, but likely stems from differences in the allosteric alterations of the A subunit protein resulting from the binding of these two classes of small molecules, which have different chemical structures.

In assay [4] the test system is KOPT-K1, SUPT-13 and RPMI-8402 cells. The assay is described as follows: Dose-response viability in three T-ALL cell lines, 72 hours. The format is cell-based, human. How it is done:
Viable cells are shown on the Y axis as a percent of the DMSO control cells. Data are presented as means±s.d. (n=3). Data are presented as means±s.d. […] The IC50 for iPAP1 is 200 to 400 nM for these cell lines.
(Perrotti and Neviani, Cancer Metastasis Rev. 27(2):159-68 (2008); Sangodkar et al., J. Clin. Invest. 127(6):2081-2090 ([…])). […] Data are presented as means±s.d.

Another assay has as its system KOPT-K1 cells. In words: KOPT-K1 cell viability (PrestoBlue), IC50 after 72 hours. In kind it is cell-based, human. The procedure: (§1) For IC50 calculation, KOPT-K1 cells were treated with each of the compounds at various concentrations for 72 hours, followed by the determination of viable cell numbers with PrestoBlue® cell viability reagent. For the PP2A phosphatase activity assay, KOPT-K1 cells were treated with each of the compounds at 10 μM for 3 hours before phosphatase activity was measured. Dopamine D2 receptor activity was monitored in HEK293T cells coexpressing the dopamine D2 receptor, modified G protein and SRE luciferase reporter. Cells were treated with each of the compound at 10 μM for 3 hours, then lysed for the luciferase reporter assay.
For IC50 calculations, KOPT-K1 cells were treated with each of the compound at various concentrations for 72 hours, then their viability was examined by PrestoBlue® Cell Viability Reagent (Thermo Fisher Scientific). For PP2A phosphatase activity assay, KOPT-K1 cells were treated with each of the compound at 10 μM for three hours before the activity of PP2A was quantified using PP2A Immunoprecipitation Phosphatase Assay Kit (Merck Millipore®). DRD2 activity was monitored in HEK293T cells expressing DRD2, modified G protein and SRE luciferase reporter. Cells were treated with each of the compounds at 10 μM for three hours, then lysed for luciferase reporter assay. […] The biochemical assays were performed as indicated in Examples 7 and 8.

Assay [5] has as its target tubulin from porcine brain (Sus scrofa, UniProt P02550+P02554). The assay is described as follows: Fluorescence-based tubulin polymerization assay. Particulars: concentrations of up to 2.5 or 5 μM.
Protocol: Briefly, free tubulin (2 mg/mL) in buffer supplemented with 1 mM GTP and 15% glycerol was employed. Then, the test compounds were added to tubulin solution and changes in the fluorescence intensity (ex=370 nm, em=445 nm) were measured by kinetic reading at 37° C. using SpectraMax® M5 Microplate reader (Molecular Devices LLC).
Another assay deals with T1, PP2A (Homo sapiens, UniProt P30153+P67775+Q16537).
T1 construct: are endogenously expressed by KOPTK1 cells; endogenous in cells; host or cells: KOPT-K1 T-ALL cells / lysates
The assay is described as follows: PP2A phosphatase activity in treated KOPT-K1 cells. The format is cell-based. The procedure:
Data are presented as means±s.d. (n=3, biological replicates). KO; knock out. **P<0.01, ***P<0.001 by student's t-test.
as §1
For IC50 calculations, KOPT-K1 cells were treated with each of the compound at various concentrations for 72 hours, then their viability was examined by PrestoBlue® Cell Viability Reagent (Thermo Fisher Scientific). […] DRD2 activity was monitored in HEK293T cells expressing DRD2, modified G protein and SRE luciferase reporter. Cells were treated with each of the compounds at 10 μM for three hours, then lysed for luciferase reporter assay. […] The biochemical assays were performed as indicated in Examples 7 and 8.

T1 sequence (P30153 2-589): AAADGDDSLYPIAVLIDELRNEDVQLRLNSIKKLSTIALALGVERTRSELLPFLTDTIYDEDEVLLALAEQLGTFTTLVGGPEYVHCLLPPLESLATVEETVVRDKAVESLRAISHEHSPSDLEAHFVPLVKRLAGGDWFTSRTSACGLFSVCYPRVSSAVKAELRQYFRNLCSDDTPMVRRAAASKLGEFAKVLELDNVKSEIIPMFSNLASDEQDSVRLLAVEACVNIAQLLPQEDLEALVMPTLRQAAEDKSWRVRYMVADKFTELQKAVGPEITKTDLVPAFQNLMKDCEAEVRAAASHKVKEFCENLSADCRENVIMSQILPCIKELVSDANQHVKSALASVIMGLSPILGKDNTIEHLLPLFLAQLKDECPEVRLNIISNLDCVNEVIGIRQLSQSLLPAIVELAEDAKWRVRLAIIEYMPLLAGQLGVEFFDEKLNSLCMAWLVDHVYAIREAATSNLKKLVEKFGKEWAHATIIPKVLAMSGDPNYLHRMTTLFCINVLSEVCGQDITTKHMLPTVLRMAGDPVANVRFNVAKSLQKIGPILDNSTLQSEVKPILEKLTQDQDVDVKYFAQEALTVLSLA
T1 sequence (P67775 whole entry): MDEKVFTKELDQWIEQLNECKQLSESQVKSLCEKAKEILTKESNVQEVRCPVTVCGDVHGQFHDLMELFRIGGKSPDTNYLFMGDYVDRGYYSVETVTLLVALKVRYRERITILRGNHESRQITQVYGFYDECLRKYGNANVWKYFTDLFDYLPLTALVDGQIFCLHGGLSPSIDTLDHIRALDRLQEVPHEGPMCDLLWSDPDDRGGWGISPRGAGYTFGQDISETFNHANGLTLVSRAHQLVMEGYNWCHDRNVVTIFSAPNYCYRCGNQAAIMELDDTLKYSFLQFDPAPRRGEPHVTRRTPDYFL
T1 sequence (Q16537 2-467): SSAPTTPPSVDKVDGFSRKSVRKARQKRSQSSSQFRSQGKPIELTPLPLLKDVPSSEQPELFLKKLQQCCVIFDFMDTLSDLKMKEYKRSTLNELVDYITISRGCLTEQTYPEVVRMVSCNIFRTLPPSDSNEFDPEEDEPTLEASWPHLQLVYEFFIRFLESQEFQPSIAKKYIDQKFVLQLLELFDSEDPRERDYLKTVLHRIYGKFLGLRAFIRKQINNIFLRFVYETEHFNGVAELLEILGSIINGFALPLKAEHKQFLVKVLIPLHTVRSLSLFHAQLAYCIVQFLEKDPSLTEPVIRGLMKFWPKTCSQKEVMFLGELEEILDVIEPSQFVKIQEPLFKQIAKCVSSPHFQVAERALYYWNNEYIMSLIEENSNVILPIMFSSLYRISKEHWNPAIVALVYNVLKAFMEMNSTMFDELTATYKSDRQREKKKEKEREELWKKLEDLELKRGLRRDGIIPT
tubulin from porcine brain, sequence (P02550 whole entry): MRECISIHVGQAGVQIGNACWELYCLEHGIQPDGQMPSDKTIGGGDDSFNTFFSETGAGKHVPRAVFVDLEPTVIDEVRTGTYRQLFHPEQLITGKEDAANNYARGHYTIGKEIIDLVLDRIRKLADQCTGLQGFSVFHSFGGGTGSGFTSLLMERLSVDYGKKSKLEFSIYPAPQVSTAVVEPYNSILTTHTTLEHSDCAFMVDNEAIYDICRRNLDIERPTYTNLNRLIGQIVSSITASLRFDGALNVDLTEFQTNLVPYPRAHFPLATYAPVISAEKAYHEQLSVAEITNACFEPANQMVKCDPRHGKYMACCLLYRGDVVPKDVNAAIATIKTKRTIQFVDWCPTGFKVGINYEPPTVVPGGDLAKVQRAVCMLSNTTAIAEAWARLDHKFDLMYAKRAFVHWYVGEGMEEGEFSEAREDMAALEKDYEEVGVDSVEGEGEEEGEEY
tubulin from porcine brain, sequence (P02554 whole entry): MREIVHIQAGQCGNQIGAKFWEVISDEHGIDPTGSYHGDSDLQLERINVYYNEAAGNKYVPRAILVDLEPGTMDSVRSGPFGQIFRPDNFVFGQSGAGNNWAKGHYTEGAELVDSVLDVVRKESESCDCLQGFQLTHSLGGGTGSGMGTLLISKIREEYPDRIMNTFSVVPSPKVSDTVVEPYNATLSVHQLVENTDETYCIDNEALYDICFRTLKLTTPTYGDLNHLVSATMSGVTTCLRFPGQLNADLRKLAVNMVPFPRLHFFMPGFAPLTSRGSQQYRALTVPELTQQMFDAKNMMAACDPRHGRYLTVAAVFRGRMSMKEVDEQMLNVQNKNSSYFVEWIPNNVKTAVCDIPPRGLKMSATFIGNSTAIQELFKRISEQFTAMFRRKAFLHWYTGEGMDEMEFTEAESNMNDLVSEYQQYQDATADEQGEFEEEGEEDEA

In the case of `OCCN1CCN(CCCN2c3ccccc3Sc3ccc(Cl)cc32)CC1` [PPZ, perphenazine, reference compound], the “phosphorylation of MYBL2” value in assay [1] (10 μM) was “completely dephosphorylated at Ser241”. The “protection of α or β tubulins from thermal degradation” value in assay [2] is listed as “did not protect α or β tubulins from thermal degradation”. In addition, in assay [3] (5 μM), the “PP2A subunits whose knockout gives resistance” value is “resistance to PPZ treatment only when the specific subunits PPP2R1A, PPP2CA or PPP2R5E were knocked out”.

With `COc1ccc(C(=O)N2c3ccccc3Sc3ccc(Cl)cc32)cc1` [iPAP1], in assay [1] (1 μM), the “phosphorylation of MYBL2” value is listed as “completely dephosphorylated at Ser241”. The “protection of α or β tubulins from thermal degradation” value in assay [2] was “did not protect α or β tubulins from thermal degradation”. The negative logarithm of the IC50 (pIC50) in assay [4] (Homo sapiens, KOPT-K1, SUPT-13 and RPMI-8402, 72 hours) was 6.40 to 6.70; in the assay with KOPT-K1 cells (Homo sapiens, KOPTK1, 72 h, 72 hours, PrestoBlue, read-out: IC50 value against KOPT-K1 cells), roughly 6.40. Further, the “more active than SMAP against T-ALL cells based on the IC50” value in assay [4] (SUPT-13, KOPT-K1 and RPMI-8402) is listed as roughly 5 fold. The “PP2A subunits whose knockout gives resistance” value in assay [3] (0.5 μM) is “resistance to iPAP1 treatment only when the PPP2R1A, PPP2CA or PPP2R5E subunits were disrupted”. For the same compound, the “more active than PPZ for mediating T-ALL cell killing” value in the assay with KOPT-K1 cells (KOPT-K1, 72 hours) turned out to be 10 times. For the same compound, in assay [5], the “inhibition of tubulin polymerization” value is given as “inhibition of tubulin polymerization was not detected”. Further, at PP2A (KOPT-K1, 10 μM for three hours), the “more active than PPZ for stimulating PP2A phosphatase activity” value is listed as 10 times. The “phosphatase activity of PP2A relative to basal level” value on PP2A (WT KOPT-K1 cells, 1 μM) is given as “up to twice its basal level”.

Source of the values: patent publication US20220062291A1, “COMPOSITIONS AND METHODS OF TREATING CANCERS BY ADMINISTERING A PHENOTHIAZINE-RELATED DRUG THAT ACTIVATES PROTEIN PHOSPHATASE 2A (PP2A) WITH REDUCED INHIBITORY ACTIVITY TARGETED TO THE DOPAMINE D2 RECEPTOR AND ACCOMPANYING TOXICITY” (DANA-FARBER CANCER INSTITUTE, INC., priority 2018, published 2022).
